Experimental data as given in PMC6121902, “Conjugation with Dihydrolipoic Acid Imparts Caffeic Acid Ester Potent Inhibitory Effect on Dopa Oxidase Activity of Human Tyrosinase” (International Journal of Molecular Sciences, 2018).
“Also recorded” adds a separate entry of the source.

Key:
[1] = system: mushroom tyrosinase; test: Mushroom tyrosinase DO activity inhibition (dopachrome formation at 475 nm, L-DOPA substrate); type: biochemical; conditions: LCAME 0.050 μM
Procedure: (§1) The inhibition properties of LCAME were preliminarily investigated on mushroom tyrosinase by spectrophotometric monitoring of dopachrome formation, a method which is routinely used for evaluation of the activity of potential tyrosinase inhibitors. L-DOPA was used as the substrate to test DO activity while L-tyrosine was used to test TH activity. LCAME was incubated in 50 mM phosphate buffer in the presence of mushroom tyrosinase (20 U/mL) at room temperature. After 10 min, L-DOPA or L-tyrosine (1 mM final concentration) were added and the absorbance at 475 nm was measured at different times over 10 min. For comparative purposes the effects of CAME were evaluated as well. Stock methanolic solutions of LCAME or CAME, ranging in concentration from 0.02 to 20 mM concentration were prepared dissolving a proper amount of the compound of interest in methanol. 100 μL of these solutions were added to 2 mL of 50 mM phosphate buffer at pH 6.8 (final concentrations range: 0.001–1 mM), in the presence or in the absence of 20 U/mL mushroom tyrosinase. After 10 min incubation at room temperature, 20 μL of a 100 mM solution of L-DOPA or L-tyrosine in 0.6 M HCl, were added (final concentration: 1 mM). Spectrophotometric analysis was performed by measuring the absorbance at 475 nm for 10 min at 2 min intervals. In control experiments, the reaction was run in the absence of LCAME. When required, the experiment was performed as above but adding L-DOP A soon after the addition of LCAME (0.050 μM). In separate experiments, the assay was run as above with LCAME or CAME at 100 μM, in the presence or absence of L-DOPA, and after 10 min the mixture was analyzed by HPLC.

[2] = target: mushroom tyrosinase; test: Mushroom tyrosinase TH activity inhibition (dopachrome formation at 475 nm, L-tyrosine substrate); type: biochemical; conditions: 10 min pre-incubation, L-tyrosine 1 mM, tyrosinase 20 U/mL, pH 6.8
Procedure: as §1, with “After 10 min incubation at room temperature, 20 μL of a 100 mM solution of L-DOPA or L-tyrosine in 0.6 M HCl, were added (final concentration: 1 mM).” left out, “In control experiments, the reaction was run in the absence of LCAME. When required, the experiment was performed as above but adding L-DOP A soon after the addition of LCAME (0.050 μM).” left out

[3] = system: mushroom tyrosinase; test: Consumption of inhibitor by mushroom tyrosinase (substrate test, HPLC); type: biochemical; conditions: 100 μM, 10 min
Procedure: Some tyrosinase inhibitors are also substrates of the enzyme and this is a critical issue because their oxidation can lead to the formation of highly reactive, cytotoxic o-quinones. To rule out this possibility, either LCAME or CAME at 100 μM were exposed to mushroom tyrosinase, in the absence of L-DOPA, and after 10 min, the reaction mixtures were analyzed by HPLC. […] HPLC analyses for determination of the consumption of CAME and LCAME in the presence of mushroom tyrosinase were performed on a Agilent 1100 binary pump instrument equipped with a UV-visible detector using an octadecylsilane-coated column, 250 mm × 4.6 mm, 5 μm particle size (Phenomenex Sphereclone ODS, Bologna, Italy) at 0.7 mL/min, using the following gradient: 0.1% formic acid (eluant a)/ methanol (eluant b): 40% b, 0–10 min; from 40 to 80% b, 47.5–52.5 min; from 80 to 40% b, 52.5–57.5 min. Detection wavelength was set at 280 nm. Stock methanolic solutions of LCAME or CAME, ranging in concentration from 0.02 to 20 mM concentration were prepared dissolving a proper amount of the compound of interest in methanol. 100 μL of these solutions were added to 2 mL of 50 mM phosphate buffer at pH 6.8 (final concentrations range: 0.001–1 mM), in the presence or in the absence of 20 U/mL mushroom tyrosinase. After 10 min incubation at room temperature, 20 μL of a 100 mM solution of L-DOPA or L-tyrosine in 0.6 M HCl, were added (final concentration: 1 mM). Spectrophotometric analysis was performed by measuring the absorbance at 475 nm for 10 min at 2 min intervals. In control experiments, the reaction was run in the absence of LCAME. When required, the experiment was performed as above but adding L-DOP A soon after the addition of LCAME ([…]). In separate experiments, the assay was run as above with LCAME or CAME at 100 μM, in the presence or absence of L-DOPA, and after 10 min the mixture was analyzed by HPLC.

[4] = system: HBL cells; test: MTT viability assay; type: cell-based, human; conditions: 25 or 50 μM, 24 h
Procedure: The effect of the inhibitors on cell viability was evaluated by phase contrast microscopy and by means of the 3-(4,5-dimethyl-2-thiazolyl)-2,5-diphenyl-2H-tetrazolium bromide (MTT) assay. HBL cells were treated with the compounds (25 or 50 μM) for 24 h. At the end of the incubation period, phase contrast images were taken and the MTT assay was performed to test the cytotoxicity of each compound.
Figure 4 Effect of caffeic acid derivatives on the viability of HBL cells. Cells were incubated for 24 h with the inhibitors at 25 or 50 µM. (a) Phase contrast microscopy images. Representative images are shown (n = 8) Bar size: 50 μm. (b) MTT viability assay. Cells were grown in 96-well plates to ~80% confluence in the presence or absence of the indicated compounds. After 24 h, MTT was added (1 mg/mL final concentration) and maintained in the culture media for 4 h. Cells were PBS-washed twice and solubilized in DMSO. Absorbance at 562 nm was measured and represented as a percentage of the control value. The mean ± SEM of 8 independent experiments is shown. **** p < 0.0001.
Cell viability was measured by the MTT assay. HBL cells were seeded into the wells of a 96-wells plate at a density of 10,000 cells in 200 μL cell culture media. The seeded cells were incubated for 18 h at 37 °C, then treated with the compounds (25 or 50 μM) for 24 h or left untreated. At the end of the incubation period, images were taken and the MTT assay was performed to test the cytotoxicity of the different caffeic acid derivatives.

[5] = system: T1, human tyrosinase; test: Substrate test with HBL cell lysates and MBTH (absorbance at 490 nm); type: biochemical; conditions: different concentrations, over 1 h
T1 construct: The oxidation of L-DOPA by cell-free HBL cell extracts was monitored spectrophotometrically at 490 nm; endogenous in cells; host or cells: HBL human melanoma cells (detergent-solubilized cell extract)

inhibition of DO activity ([1]; 10 min pre-incubation): 50 ± 2%
inhibition of DO activity ([1]; L-DOPA added immediately after LCAME (no pre-incubation)): 42 ± 1%
IC50 [2]: 830 ± 90 nM
consumption of the inhibitor ([3]; absence of L-DOPA): no significant consumption
consumption of the inhibitor ([3]; presence of L-DOPA): The same result
SMILES: COC(=O)/C=C/c1ccc(O)c(O)c1SCCC(S)CCCCC(=O)O (stereo not shown) [LCAME, 2-S-lipoylcaffeic acid methyl ester]
cytotoxicity (MTT) [4]: nontoxic; also recorded: not cytotoxic
change in the absorbance at 490 nm (substrate of human tyrosinase) [5]: did not induce any change
